Source: US20260209304A1, “INSULIN RECEPTOR ANTAGONIST” (The Board of Trustees of the Leland Stanford Junior …, priority 2022, published 2026)
Positions of bridges follow the written chain, without caps; N, C: chain ends. Chains are numbered I, II in the order given. No end group written: not given here.

How the values were obtained:
human insulin receptor [1] = target: T1, human insulin receptor (Homo sapiens, UniProt P06213); assay: Cell-based pAKT (Ser473) assay in NIH 3T3 cells overexpressing human insulin receptor; design: expressed in transfected cells; host or cells: NIH 3T3 cell line derived from IGF-1R knockout mice (gift from A. Morrione, Thomas Jefferson University)
Experimental: All the values are shown as mean±SD (n=4). EC50 and IC50 values were calculated by Prism 9 (GraphPad Software, California, USA) with nonlinear regression curve fitting of dose-response asymmetric equation.
Cell-based pAKT and phosphor-IR-beta Assays. The bioactivities of the analogs were evaluated through a cell-based pAKT (Ser473) assay or phospho-IR-beta (Tyr1150/1151) assay. Endogenous levels of pAKT or phosphor-IR-beta were measured in a human insulin receptor overexpressed NIH 3T3 cell line, derived from IGF-1R knockout mice (a generous gift from A. Morrione, Thomas Jefferson University). Cells were cultured in DMEM (Gibco) with 10% fetal bovine serum (FBS, Gibco), 100 U/mL penicillin-streptomycin (Gibco), 2 mg/mL puromycin (Thermo Fisher Scientific), and 1 mg/mL normocin (InvivoGen) at 37° C. under 5% CO2. For the assays, 30,000 cells per well and 100 μl per well, were plated in a 96-well plate with culture media containing 1% FBS. 20 hours later, the media was removed and 50 μl of culture media with different concentrations of native insulin or analog was pipetted into each well. […] After 4 hours of incubation, the plate was read in a SpectraMax iD5 plate reader (Molecular Devices) and the data were processed according to the manufacturer's protocol. […]

insulin receptor (IR) = insulin receptor (IR) (Homo sapiens, UniProt P06213); assay: Binding affinity of insulin-core mutants relative to the A13R mutation
human insulin receptor [2] = target: T1, human insulin receptor; assay: cell-based or functional assay

Molecule | Agonist Activity (nM), cell-based pAKT assay (human insulin receptor [2]) | Antagonist Activity (nM), cell-based pAKT assay (human insulin receptor [2]) | EC50 (human insulin receptor [1]) | binding affinity relative to the A13R mutation (insulin receptor (IR))
I: FVNQHLCGSELVEALYLVCGERGFFYTPK / II: GIVEQCCHRICSLYQLENYCGGSLPETGG (disulfide I:7-II:7, I:19-II:20, II:6-II:11) [Ins-AC-10-9] | – | – | 0.562 nM | increased
I: GIVEQCCHRICSLYQLENYCGGSLPETGGGSLEEEWAQIQSEVWGRGSPSY / II: FVNQHLCGSELVEALYLVCGERGFFYTPK (disulfide I:6-I:11, I:7-II:7, I:20-II:19) [Ins-AC-10-11] | – | – | 0.0115 nM | increased

Further lines, with some results ahead:

Agonist Activity (nM), cell-based pAKT assay (human insulin receptor [2]) | Antagonist Activity (nM), cell-based pAKT assay (human insulin receptor [2]) | Molecule | EC50 (human insulin receptor [1]) | binding affinity relative to the A13R mutation (insulin receptor (IR))
0.562 nM | – | Ins-AC-10-9 (designed binder) chain 1: GIVEQCCHRICSLYQLENYCGGSLPETGG chain 2: FVNQHLCGSELVEALYLVCGERGFFYTPK | – | –
0.0115 nM | 0.5 nM | Ins-AC-10-11 (designed binder) chain 1: GIVEQCCHRICSLYQLENYCGGSLPETGGGSLEEEWAQIQSEVWGRGSPSY chain 2: FVNQHLCGSELVEALYLVCGERGFFYTPK | – | –
